Experimental data taken from patent US11753395B2 (Kinnate Biopharma Inc., priority 2021, dated 2023).

Assays:
MET = target: T1, MET (Homo sapiens, UniProt P08581); experiment: MET Mobility Shift Assay; conditions: biochemical assay IC50; 100 μM ATP, 60 minute kinase reaction
T1 construct: purchased Carna Biosciences 08-151
Procedure, shortened: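 Recombinant MET at 0.625 nM was pre-incubated 30 min at room temperature with 1.5 μM FLPeptide30 and 10 mM MgCl2 in HEPES buffer with DTT. The reaction was started with 100 μM ATP, ran 60 min, and was stopped with EDTA. Microfluidic mobility-shift % conversion gave IC50.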

MET D1228N = target: T2, MET D1228N (Homo sapiens, UniProt P08581, D1228N); experiment: MET D1228N Mobility Shift Assay; conditions: biochemical assay IC50; 100 μM ATP, 60 minute kinase reaction
T2 construct: purchased Signalchem M52-12IG
T2 sequence (P08581 25-1390 D1228N): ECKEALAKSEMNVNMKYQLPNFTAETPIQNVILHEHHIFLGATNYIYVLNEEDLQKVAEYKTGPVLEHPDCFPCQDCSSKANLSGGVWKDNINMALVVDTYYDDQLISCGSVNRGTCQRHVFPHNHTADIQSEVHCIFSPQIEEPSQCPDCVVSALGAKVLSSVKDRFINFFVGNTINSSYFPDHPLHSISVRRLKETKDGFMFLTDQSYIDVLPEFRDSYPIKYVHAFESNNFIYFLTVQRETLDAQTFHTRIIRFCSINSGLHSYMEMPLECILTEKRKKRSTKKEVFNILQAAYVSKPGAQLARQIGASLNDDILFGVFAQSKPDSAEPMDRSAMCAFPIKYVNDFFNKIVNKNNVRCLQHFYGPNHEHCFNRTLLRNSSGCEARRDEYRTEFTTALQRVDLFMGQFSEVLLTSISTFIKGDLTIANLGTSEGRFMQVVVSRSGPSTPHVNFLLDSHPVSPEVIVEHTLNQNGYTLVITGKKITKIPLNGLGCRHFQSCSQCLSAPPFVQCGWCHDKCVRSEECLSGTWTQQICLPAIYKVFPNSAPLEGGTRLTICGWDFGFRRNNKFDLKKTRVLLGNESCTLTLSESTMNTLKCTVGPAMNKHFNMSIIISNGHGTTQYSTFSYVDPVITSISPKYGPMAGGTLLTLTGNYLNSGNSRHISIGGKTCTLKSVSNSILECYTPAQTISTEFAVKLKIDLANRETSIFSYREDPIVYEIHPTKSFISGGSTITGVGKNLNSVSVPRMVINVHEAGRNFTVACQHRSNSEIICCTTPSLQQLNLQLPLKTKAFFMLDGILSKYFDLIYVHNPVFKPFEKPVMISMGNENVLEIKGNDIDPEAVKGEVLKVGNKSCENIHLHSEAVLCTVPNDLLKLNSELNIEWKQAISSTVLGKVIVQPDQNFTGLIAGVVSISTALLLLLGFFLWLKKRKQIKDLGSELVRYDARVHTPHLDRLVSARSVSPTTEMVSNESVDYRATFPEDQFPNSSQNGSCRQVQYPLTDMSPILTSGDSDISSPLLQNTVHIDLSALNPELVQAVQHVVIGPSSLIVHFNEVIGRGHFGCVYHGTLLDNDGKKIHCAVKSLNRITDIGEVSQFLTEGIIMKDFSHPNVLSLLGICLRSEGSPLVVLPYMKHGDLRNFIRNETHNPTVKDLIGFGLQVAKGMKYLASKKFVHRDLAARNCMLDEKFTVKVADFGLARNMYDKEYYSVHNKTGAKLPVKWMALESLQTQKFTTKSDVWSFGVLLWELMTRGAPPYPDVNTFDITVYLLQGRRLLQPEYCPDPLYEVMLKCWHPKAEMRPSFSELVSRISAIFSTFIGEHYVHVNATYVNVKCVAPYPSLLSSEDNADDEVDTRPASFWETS
Procedure, shortened: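 Enzyme at 0.313 nM preincubated 30 min at room temperature with 1.5 μM FAM-labelled peptide and 10 mM MgCl2 in HEPES buffer with DTT; reaction started with 100 μM ATP, run 60 min, stopped with EDTA. Substrate/product separated by microfluidic mobility shift; IC50 from inhibition of % conversion.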

Ba/F3-TPR-MET cells = target: T3, Ba/F3-TPR-MET cells (Homo sapiens, UniProt P08581); experiment: CellTiter-Glo Cell Viability Assay, Ba/F3-TPR-MET; format: cell-based; conditions: 72 hours
T3 construct: fused on or other part: P12270 (Nucleoprotein TPR)
T3 sequence (P08581 whole entry, change not shown, the tested form may be a part): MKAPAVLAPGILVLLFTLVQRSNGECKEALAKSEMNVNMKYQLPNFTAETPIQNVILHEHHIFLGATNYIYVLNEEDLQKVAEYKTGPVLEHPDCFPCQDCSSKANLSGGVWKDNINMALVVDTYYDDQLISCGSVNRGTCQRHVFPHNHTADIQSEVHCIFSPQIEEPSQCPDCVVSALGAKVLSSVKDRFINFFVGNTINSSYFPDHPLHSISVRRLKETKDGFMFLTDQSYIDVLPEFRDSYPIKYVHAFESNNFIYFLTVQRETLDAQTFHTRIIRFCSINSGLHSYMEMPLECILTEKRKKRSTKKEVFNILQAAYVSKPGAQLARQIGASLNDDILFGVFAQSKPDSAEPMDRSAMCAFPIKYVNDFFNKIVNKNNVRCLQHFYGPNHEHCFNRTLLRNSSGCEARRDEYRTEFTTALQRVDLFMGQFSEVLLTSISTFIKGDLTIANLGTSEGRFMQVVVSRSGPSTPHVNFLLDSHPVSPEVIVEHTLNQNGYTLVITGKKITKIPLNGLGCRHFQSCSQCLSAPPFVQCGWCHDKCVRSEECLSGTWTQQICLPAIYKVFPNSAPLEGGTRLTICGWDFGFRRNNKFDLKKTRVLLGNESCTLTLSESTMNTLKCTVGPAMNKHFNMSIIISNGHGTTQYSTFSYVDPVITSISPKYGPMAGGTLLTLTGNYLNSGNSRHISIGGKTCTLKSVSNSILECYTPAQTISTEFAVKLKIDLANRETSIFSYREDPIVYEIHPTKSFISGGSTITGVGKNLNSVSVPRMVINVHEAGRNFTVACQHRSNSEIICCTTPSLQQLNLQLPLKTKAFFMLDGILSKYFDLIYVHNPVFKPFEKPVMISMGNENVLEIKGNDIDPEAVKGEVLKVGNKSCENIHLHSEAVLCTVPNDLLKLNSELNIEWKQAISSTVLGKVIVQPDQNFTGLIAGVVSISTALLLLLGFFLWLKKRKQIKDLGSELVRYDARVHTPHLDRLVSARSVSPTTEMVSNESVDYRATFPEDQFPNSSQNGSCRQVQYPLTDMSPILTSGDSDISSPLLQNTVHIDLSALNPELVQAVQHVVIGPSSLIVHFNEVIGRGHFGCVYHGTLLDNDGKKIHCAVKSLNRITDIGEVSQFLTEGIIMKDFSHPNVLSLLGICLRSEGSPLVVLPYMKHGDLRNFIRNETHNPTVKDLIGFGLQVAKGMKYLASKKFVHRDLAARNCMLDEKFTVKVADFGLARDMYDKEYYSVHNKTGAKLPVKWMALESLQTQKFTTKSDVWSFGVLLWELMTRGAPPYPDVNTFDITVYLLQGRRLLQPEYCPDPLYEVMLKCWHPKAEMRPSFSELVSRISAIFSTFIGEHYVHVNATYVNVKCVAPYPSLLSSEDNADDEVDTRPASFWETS
Procedure, shortened: (§1)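 Ba/F3 cells carrying TPR-MET or TPR-MET-D1228N, 3000 per well, were exposed for 72 h at 37 °C to 9-point 3-fold compound dilutions at 0.1% DMSO. Viability was read as ATP by CellTiter-Glo 2.0 luminescence, and IC50 values came from curve fitting.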

[1] = target: T4, Ba/F3-TPR-MET-D1228N cells (Homo sapiens, UniProt P08581, D1228N, cells depend on it); experiment: CellTiter-Glo Cell Viability Assay, Ba/F3-TPR-MET-D1228N; format: cell-based; conditions: 72 hours
T4 construct: fused on or other part: P12270 (Nucleoprotein TPR)
Procedure, shortened: as §1

T1 sequence (P08581 25-1390): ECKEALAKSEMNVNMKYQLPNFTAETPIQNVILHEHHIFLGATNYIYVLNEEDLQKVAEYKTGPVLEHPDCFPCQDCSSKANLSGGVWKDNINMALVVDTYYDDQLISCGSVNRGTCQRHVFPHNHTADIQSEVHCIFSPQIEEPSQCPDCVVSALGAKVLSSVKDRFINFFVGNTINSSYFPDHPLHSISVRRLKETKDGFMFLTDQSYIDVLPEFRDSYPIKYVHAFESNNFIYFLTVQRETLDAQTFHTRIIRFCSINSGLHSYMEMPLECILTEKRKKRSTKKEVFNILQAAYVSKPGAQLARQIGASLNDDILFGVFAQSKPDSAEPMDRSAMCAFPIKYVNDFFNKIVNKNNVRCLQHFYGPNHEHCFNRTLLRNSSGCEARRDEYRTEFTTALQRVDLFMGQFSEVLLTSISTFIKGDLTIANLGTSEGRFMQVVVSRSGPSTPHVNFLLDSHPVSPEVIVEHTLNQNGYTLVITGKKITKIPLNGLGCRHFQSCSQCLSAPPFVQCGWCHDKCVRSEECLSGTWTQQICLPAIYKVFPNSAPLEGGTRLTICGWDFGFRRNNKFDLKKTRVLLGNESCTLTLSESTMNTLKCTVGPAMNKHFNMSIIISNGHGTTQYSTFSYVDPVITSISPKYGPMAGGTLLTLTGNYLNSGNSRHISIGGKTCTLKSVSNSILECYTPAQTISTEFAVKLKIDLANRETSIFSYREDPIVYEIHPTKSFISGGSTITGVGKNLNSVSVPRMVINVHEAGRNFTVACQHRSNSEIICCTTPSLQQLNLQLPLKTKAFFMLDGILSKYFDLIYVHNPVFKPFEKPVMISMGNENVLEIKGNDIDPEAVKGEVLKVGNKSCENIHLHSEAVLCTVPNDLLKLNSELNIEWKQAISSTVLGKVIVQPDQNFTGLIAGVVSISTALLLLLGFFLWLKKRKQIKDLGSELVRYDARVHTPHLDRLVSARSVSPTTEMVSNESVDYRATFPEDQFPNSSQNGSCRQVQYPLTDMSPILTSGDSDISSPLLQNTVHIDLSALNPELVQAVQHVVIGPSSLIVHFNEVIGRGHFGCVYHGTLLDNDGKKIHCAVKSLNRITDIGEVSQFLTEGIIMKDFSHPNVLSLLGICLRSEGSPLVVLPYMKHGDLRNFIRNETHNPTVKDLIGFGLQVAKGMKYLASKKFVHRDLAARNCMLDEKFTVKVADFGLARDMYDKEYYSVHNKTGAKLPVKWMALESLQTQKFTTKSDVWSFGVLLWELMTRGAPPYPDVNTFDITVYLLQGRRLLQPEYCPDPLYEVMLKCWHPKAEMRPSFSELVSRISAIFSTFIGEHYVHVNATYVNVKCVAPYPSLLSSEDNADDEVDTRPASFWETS

Row | SMILES | IC50 (MET) | IC50 (MET D1228N) | EC50 (Ba/F3-TPR-MET cells) | EC50 [1]
1 | CNCCOc1cc2nccc(Oc3c(F)cc(NC(=O)c4cnccc4OCC(F)F)cc3F)c2cc1OC [Example 60, N-[3,5-difluoro-4-({6-methoxy-7-[2-(methylamino)ethoxy]quinolin-4-yl}oxy)phenyl]-4-(2,2-difluoroethoxy)pyridine-3-carboxamide] | ≤ 100 nM | ≤ 100 nM | ≤ 100 nM | ≤ 100 nM
2 | CNCCOc1cc2nccc(Oc3c(F)cc(NC(=O)c4cnccc4OCC(C)(C)O)cc3F)c2cc1OC [Example 66, N-(3,5-difluoro-4-((6-methoxy-7-(2-(methylamino)ethoxy)quinolin-4-yl)oxy)phenyl)-4-(2-hydroxy-2-methylpropoxy)pyridine-3-carboxamide] | ≤ 100 nM | ≤ 100 nM | 100 to 1000 nM | 100 to 1000 nM
3 | CNCCOc1cc2nccc(Oc3c(F)cc(NC(=O)c4cnccc4OC4COC4)cc3F)c2cc1OC [Example 68, N-[3,5-difluoro-4-({6-methoxy-7-[2-(methylamino)ethoxy]quinolin-4-yl}oxy)phenyl]-4-(oxetan-3-yloxy)pyridine-3-carboxamide] | ≤ 100 nM | ≤ 100 nM | 100 to 1000 nM | ≤ 100 nM
4 | CCCCOc1ccncc1C(=O)Nc1cc(F)c(Oc2ccnc3cc(OCCNC)c(OC)cc23)c(F)c1 [Example 69, 4-butoxy-N-[3,5-difluoro-4-({6-methoxy-7-[2-(methylamino)ethoxy]quinolin-4-yl}oxy)phenyl]pyridine-3-carboxamide] | ≤ 100 nM | ≤ 100 nM | ≤ 100 nM | ≤ 100 nM
5 | CNCCOc1cc2nccc(Oc3c(F)cc(NC(=O)c4cnccc4O[C@@H]4CCOC4)cc3F)c2cc1OC [Example 70, N-[3,5-difluoro-4-({6-methoxy-7-[2-(methylamino)ethoxy]quinolin-4-yl}oxy)phenyl]-4-[(3R)-oxolan-3-yloxy]pyridine-3-carboxamide] | ≤ 100 nM | ≤ 100 nM | 100 to 1000 nM | 100 to 1000 nM
6 | CNCCOc1cc2nccc(Oc3c(F)cc(NC(=O)c4cnccc4O[C@H]4CCOC4)cc3F)c2cc1OC [Example 71, N-[3,5-difluoro-4-({6-methoxy-7-[2-(methylamino)ethoxy]quinolin-4-yl}oxy)phenyl]-4-[(3S)-oxolan-3-yloxy]pyridine-3-carboxamide] | ≤ 100 nM | ≤ 100 nM | 100 to 1000 nM | 100 to 1000 nM
7 | CNCCOc1cc2nccc(Oc3c(F)cc(NC(=O)c4cnccc4OCC4CC4)cc3F)c2cc1OC [Example 72, 4-(cyclopropylmethoxy)-N-[3,5-difluoro-4-({6-methoxy-7-[2-(methylamino)ethoxy]quinolin-4-yl}oxy)phenyl]pyridine-3-carboxamide] | ≤ 100 nM | ≤ 100 nM | 100 to 1000 nM | ≤ 100 nM
8 | COc1cc2c(Oc3c(F)cc(NC(=O)c4cnccc4OC4CC4)cc3F)ccnc2cc1OC1CNC1 [Example 74, N-(4-{[7-(azetidin-3-yloxy)-6-methoxyquinolin-4-yl]oxy}-3,5-difluorophenyl)-4-cyclopropoxypyridine-3-carboxamide] | ≤ 100 nM | ≤ 100 nM | 100 to 1000 nM | 100 to 1000 nM
9 | CCNCCOc1cc2nccc(Oc3c(F)cc(NC(=O)c4cnccc4OC4CC4)cc3F)c2cc1OC [Example 75, 4-cyclopropoxy-N-[4-({7-[2-(ethylamino)ethoxy]-6-methoxyquinolin-4-yl}oxy) -3,5-difluorophenyl]pyridine-3-carboxamide] | ≤ 100 nM | ≤ 100 nM | ≤ 100 nM | ≤ 100 nM
10 | CNCCOc1cc2nccc(Oc3c(F)cc(NC(=O)c4cncnc4OC4CC4)cc3F)c2cc1OC [Example 76, 4-cyclopropoxy-N-[3,5-difluoro-4-({6-methoxy-7-[2-(methylamino)ethoxy]quinolin-4-yl}oxy)phenyl]pyrimidine-5-carboxamide] | ≤ 100 nM | ≤ 100 nM | 100 to 1000 nM | 100 to 1000 nM
11 | CNCCOc1cc2nccc(Oc3c(F)cc(NC(=O)c4ncccc4OC4CC4)cc3F)c2cc1OC [Example 77, 3-cyclopropoxy-N-[3,5-difluoro-4-({6-methoxy-7-[2-(methylamino)ethoxy]quinolin-4-yl}oxy)phenyl]pyridine-2-carboxamide] | ≤ 100 nM | ≤ 100 nM | ≤ 100 nM | ≤ 100 nM
12 | CNCCOc1cc2nccc(Oc3c(F)cc(NC(=O)c4cccnc4OC4CC4)cc3F)c2cc1OC [Example 78, 2-cyclopropoxy-N-[3,5-difluoro-4-({6-methoxy-7-[2-(methylamino)ethoxy]quinolin-4-yl}oxy)phenyl]pyridine-3-carboxamide] | ≤ 100 nM | ≤ 100 nM | 100 to 1000 nM | 100 to 1000 nM
13 | CNCCOc1ccc2c(Oc3c(F)cc(NC(=O)c4cccnc4OC4CC4)cc3F)ccnc2c1 [Example 79, 2-cyclopropoxy-N-[3,5-difluoro-4-({7-[2-(methylamino)ethoxy]quinolin-4-yl}oxy)phenyl]pyridine-3-carboxamide] | ≤ 100 nM | ≤ 100 nM | 100 to 1000 nM | 100 to 1000 nM
14 | CNCCOc1ccc2c(Oc3c(F)cc(NC(=O)c4ncccc4OC4CC4)cc3F)ccnc2c1 [Example 80, 3-cyclopropoxy-N-[3,5-difluoro-4-({7-[2-(methylamino)ethoxy]quinolin-4-yl}oxy)phenyl]pyridine-2-carboxamide] | ≤ 100 nM | ≤ 100 nM | 100 to 1000 nM | ≤ 100 nM
15 | CNCCOc1ccc2c(Oc3c(F)cc(NC(=O)c4ccncc4OC4CC4)cc3F)ccnc2c1 [Example 81, 3-cyclopropoxy-N-(3,5-difluoro-4-((7-(2-(methylamino)ethoxy)quinolin-4-yl)oxy)phenyl)isonicotinamide] | ≤ 100 nM | ≤ 100 nM | ≤ 100 nM | ≤ 100 nM

More lines, main results first:

Row | IC50 (MET) | IC50 (MET D1228N) | SMILES | EC50 (Ba/F3-TPR-MET cells) | EC50 [1]
16 | ≤ 100 nM | ≤ 100 nM | CNCCOc1cc2nccc(Oc3c(F)cc(NC(=O)c4cnccc4OC[C@@H](C)F)cc3F)c2cc1OC [Example 61, N-[3,5-difluoro-4-({6-methoxy-7-[2-(methylamino)ethoxy]quinolin-4-yl}oxy)phenyl]-4-[(2R)-2-fluoropropoxy]pyridine-3-carboxamide] | ≤ 100 nM | ≤ 100 nM
17 | ≤ 100 nM | ≤ 100 nM | CNCCOc1cc2nccc(Oc3c(F)cc(NC(=O)c4cnccc4OC[C@H](C)F)cc3F)c2cc1OC [Example 62, N-[3,5-difluoro-4-({6-methoxy-7-[2-(methylamino)ethoxy]quinolin-4-yl}oxy)phenyl]-4-[(2S)-2-fluoropropoxy]pyridine-3-carboxamide] | ≤ 100 nM | ≤ 100 nM
18 | ≤ 100 nM | ≤ 100 nM | CNCCOc1cc2nccc(Oc3c(F)cc(NC(=O)c4cnccc4OCCO)cc3F)c2cc1OC [Example 63, N-[3,5-difluoro-4-({6-methoxy-7-[2-(methylamino)ethoxy]quinolin-4-yl}oxy)phenyl]-4-(2-hydroxyethoxy)pyridine-3-carboxamide] | 100 to 1000 nM | 100 to 1000 nM
19 | ≤ 100 nM | ≤ 100 nM | CNCCOc1cc2nccc(Oc3c(F)cc(NC(=O)c4cnccc4OC[C@H](C)O)cc3F)c2cc1OC [Example 64, (S)-N-(3,5-difluoro-4-((6-methoxy-7-(2-(methylamino)ethoxy)quinolin-4-yl)oxy)phenyl)-4-(2-hydroxypropoxy)pyridine-3-carboxamide] | 100 to 1000 nM | 100 to 1000 nM
20 | ≤ 100 nM | ≤ 100 nM | CNCCOc1cc2nccc(Oc3c(F)cc(NC(=O)c4cnccc4OC[C@@H](C)O)cc3F)c2cc1OC [Example 65, (R)-N-(3,5-difluoro-4-((6-methoxy-7-(2-(methylamino)ethoxy)quinolin-4-yl)oxy)phenyl)-4-(2-hydroxypropoxy)pyridine-3-carboxamide] | 100 to 1000 nM | ≤ 100 nM
21 | ≤ 100 nM | ≤ 100 nM | CNCCOc1cc2nccc(Oc3c(F)cc(NC(=O)c4cnccc4OCCOC)cc3F)c2cc1OC [Example 67, N-[3,5-difluoro-4-({6-methoxy-7-[2-(methylamino)ethoxy]quinolin-4-yl}oxy)phenyl]-4-(2-methoxyethoxy)pyridine-3-carboxamide] | 100 to 1000 nM | 100 to 1000 nM
22 | ≤ 100 nM | ≤ 100 nM | C#CCOc1ccncc1C(=O)Nc1cc(F)c(Oc2ccnc3cc(OCCNC)c(OC)cc23)c(F)c1 [Example 73, N-[3,5-difluoro-4-({6-methoxy-7-[2-(methylamino)ethoxy]quinolin-4-yl}oxy)phenyl]-4-(prop-2-yn-1-yloxy)pyridine-3-carboxamide] | ≤ 100 nM | ≤ 100 nM
23 | ≤ 100 nM | ≤ 100 nM | CCCOc1ccncc1C(=O)Nc1ccc(Oc2ccnc3cc(OCCNC)c(OC)cc23)c(F)c1F [Example 82, N-[2,3-difluoro-4-({6-methoxy-7-[2-(methylamino)ethoxy]quinolin-4-yl}oxy)phenyl]-4-propoxypyridine-3-carboxamide] | 100 to 1000 nM | 100 to 1000 nM
